Data as given in US9936701B2, “Herbicidal compounds” (Syngenta Participations AG, priority 2013, dated 2018).

What was measured:
[1] = test system: a variety of test species; assay: Pre-emergence herbicidal activity (glasshouse, sprayed one day after sowing, evaluated after 13 days); type: in vivo; set-up: key: 5=total damage to plant; 0=no damage to plant; settings: application pre-emergence, rate 1000 g/Ha, scale 0-5
Outline: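 Sow in pots of standard soil; after one day under glasshouse conditions, spray compound (acetone/water 50:50 formulation, 0.5% Tween 20, diluted in water). Grow on at 24/16 °C, 14 h light, 65% humidity with twice-daily watering. Assess at 13 days, 0–5 damage scale.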

[2] = test system: a variety of test species; assay: Post-emergence herbicidal activity (glasshouse, sprayed after 8 days cultivation, evaluated after 13 days); type: in vivo; set-up: key: 5=total damage to plant; 0=no damage to plant; settings: rate 1000 g/Ha, scale 0-5
Outline: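 Damage rating 0 (none) to 5 (total), assessed 13 days after spraying. Plants received the compound in acetone/water 50:50 with 0.5% Tween 20 at 8 days post-sowing, then were kept at 24/16 °C, 14 h photoperiod, 65% RH.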

Structure (SMILES) | melting point [°C] | Pre-emergence herbicidal damage score, ABUTH [1] | Pre-emergence herbicidal damage score, ALOMY [1] | Pre-emergence herbicidal damage score, AMARE [1] | Pre-emergence herbicidal damage score, ECHCG [1] | Pre-emergence herbicidal damage score, SETFA [1] | Pre-emergence herbicidal damage score, ZEAMX [1] | ABUTH (Abutilon theophrasti) damage score, application post-emergence [2] | ALOMY (Alopecurus myosuroides) damage score, application post-emergence [2] | AMARE (Amaranthus retroflexus) damage score, application post-emergence [2] | ECHCG (Echinochloa crus-galli) damage score, application post-emergence [2] | SETFA (Setaria faberi) damage score, application post-emergence [2] | ZEAMX (Zea mays) damage score, application post-emergence [2]
CCCC1=C(Cl)C(=O)N(c2cc(C(C)(C)C#N)on2)C1O (stereo not shown) [A65] | 99 to 100 | 5 | 3 | 5 | 5 | 5 | 2 | 5 | 5 | 5 | 5 | 5 | 4
C=CC(C)(C)c1onc(N2C(=O)C(Cl)=C(C)C2O)c1C#N (stereo not shown) [A66] | 150 to 152 | 5 | 3 | 5 | 5 | 4 | 1 | 5 | 5 | 5 | 5 | 5 | 3
CCCC1=C(Cl)C(=O)N(c2noc(C(C)(C)CC)c2C#N)C1O (stereo not shown) [A68] | 82 to 84 | 4 | 3 | 3 | 5 | 5 | 1 | 5 | 5 | 5 | 5 | 5 | 1
CCc1onc(N2C(=O)C(Cl)=C(C)C2O)c1C#N (stereo not shown) [A71] | 95 to 97 | 4 | 3 | 5 | 4 | 5 | 2 | 5 | 4 | 5 | 5 | 5 | 2
CC1=C(Cl)C(=O)N(c2cc(C(C)(C)CC#N)on2)C1O (stereo not shown) [A72] | 103 to 105 | 5 | 4 | 5 | 5 | 5 | 4 | 5 | 5 | 5 | 5 | 5 | 5
CCCC1=C(Br)C(=O)N(c2noc(C(C)(C)C)c2C#N)C1OC(=O)CC (stereo not shown) [A73] | 78 to 80 | 5 | 3 | 5 | 4 | 5 | 3 | 5 | 4 | 5 | 5 | 5 | 2
CC1=C(Cl)C(=O)N(c2cc(C(C)(C)C)on2)C1OC(=O)OCC(C)C (stereo not shown) [A80] | 84 to 88 | 5 | 4 | 5 | 5 | 5 | 3 | 5 | 5 | 5 | 5 | 5 | 3

More lines, main results first:

melting point [°C] | Structure (SMILES) | Pre-emergence herbicidal damage score, ABUTH [1] | Pre-emergence herbicidal damage score, ALOMY [1] | Pre-emergence herbicidal damage score, AMARE [1] | Pre-emergence herbicidal damage score, ECHCG [1] | Pre-emergence herbicidal damage score, SETFA [1] | Pre-emergence herbicidal damage score, ZEAMX [1] | ABUTH (Abutilon theophrasti) damage score, application post-emergence [2] | ALOMY (Alopecurus myosuroides) damage score, application post-emergence [2] | AMARE (Amaranthus retroflexus) damage score, application post-emergence [2] | ECHCG (Echinochloa crus-galli) damage score, application post-emergence [2] | SETFA (Setaria faberi) damage score, application post-emergence [2] | ZEAMX (Zea mays) damage score, application post-emergence [2]
113 to 127 | CC1=C(Cl)C(=O)N(c2cc(C(C)(C)C)on2)C1OC(=O)Oc1ccccc1 (stereo not shown) [A84] | 5 | 4 | 5 | 5 | 5 | 3 | 5 | 5 | 5 | 5 | 5 | 3
130 to 132 | CC(=O)OC1C(C)=C(Cl)C(=O)N1c1noc(C(C)(C)C)c1C#N (stereo not shown) [A94, [1-(5-tert-butyl-4-cyano-isoxazol-3-yl)-4-chloro-3-methyl-5-oxo-2H-pyrrol-2-yl]acetate] | 5 | 4 | 5 | 5 | 5 | 3 | 5 | 5 | 5 | 5 | 5 | 4
95 to 97 | CC1=C(Cl)C(=O)N(c2noc(C(C)(C)C)c2C#N)C1OC(=O)C(C)(C)C (stereo not shown) [A95] | 4 | 4 | 5 | 5 | 5 | 3 | 5 | 5 | 5 | 5 | 5 | 3
69 to 71 | CCCC1=C(Cl)C(=O)N(c2noc(C(C)(C)C)c2C#N)C1OC(=O)CC (stereo not shown) [A100] | 5 | 4 | 5 | 5 | 5 | 3 | 5 | 5 | 5 | 5 | 5 | 5
138 to 139 | CC1=C(Cl)C(=O)N(c2cc(C(C)(C)C)on2)C1 [A101] | 5 | 4 | 5 | 5 | 4 | 3 | 5 | 5 | 5 | 5 | 5 | 4
112 to 114 | CC1=C(Cl)C(=O)N(c2noc(C(C)C)c2C#N)C1 [A103] | 5 | 4 | 5 | 5 | 5 | 2 | 5 | 4 | 5 | 5 | 5 | 3
